# Experimental data from patent US7534809B2, “Phospho-indoles as HIV inhibitors” (priority 2004, dated 2009).
# Read-outs that look alike come from different tables or passages of the source.
# Experiments:
# [1] = test system: HIV mutant strain K103N/Y181C; test: Cell-based assay using BH-10 cells, K103N/Y181C mutant
# Protocol: (§1) In a typical embodiment, the NNRTIs display an EC50 in a mutant HIV strain of less than approximately 5, 2.5, 1 or 0.1 μM concentration. The degree of cross-resistance against a drug resistant strain of HIV is measured by assessing the EC50 of the desired oxo-pyrimidine compound in the target mutated, i.e., drug resistant, virus.
# (§2) The degree of cross-resistance against a drug resistant strain of HIV can easily be measured by assessing the EC50 of the desired indole in the target mutated i.e., drug resistant, virus.
# [2] = test system: HIV mutant strain Y181C; test: Cell-based assay using BH-10 cells, Y181C mutant
# Protocol: as §1, §2
# [3] = test system: HIV BH-10 WT; test: Cell-based assay using BH-10 cells, wild type
# [4] = BH-10 cells, K103N/Y181C mutant, read-out: EC50 K103N/Y181C
# [5] = BH-10 cells, Y181C mutant, read-out: EC50 Y181C
# [6] = BH-10 cells, wild type, read-out: EC50 WT///B
# [7] = Human immunodeficiency virus 1, read-out: EC50 K103N/Y181C, BH-10 cells, K103N/Y181C mutant
# [8] = Human immunodeficiency virus 1, read-out: EC50 Y181C, BH-10 cells, Y181C mutant
# [9] = Human immunodeficiency virus 1, read-out: EC50 WT///B, BH-10 cells, wild type
Compound,"EC50 [1, 4] [nM]","EC50 [2, 5] [nM]","EC50 [3, 6] [nM]","EC50 [1, 7] [nM]","EC50 [2, 8] [nM]","EC50 [3, 9] [nM]"
"COP(=O)(c1cc(C)cc(C)c1)c1c(C(=O)NCc2c(F)ccc(F)c2F)[nH]c2ccc(Cl)cc12 (stereo not drawn) [CONHCH2(Ph: 2,3,6-tri-F)]",22.8,17.1,17.9,–,–,–
CCOP(=O)(c1cc(C)ccc1C)c1c(C(N)=O)[nH]c2ccc(Cl)cc12 (stereo not drawn) [Compound 6aa],1.6,1.9,0.2,–,–,–
CCOP(=O)(c1cccc(C)c1)c1c(C(N)=O)[nH]c2ccc(Cl)cc12 (stereo not drawn) [Compound 6ab],–,–,–,19.6,34.8,0.5
CCOP(=O)(c1cccc(F)c1)c1c(C(N)=O)[nH]c2ccc(Cl)cc12 (stereo not drawn) [Compound 6ae],11,61.6,0.5,–,–,–
CCOP(=O)(c1ccccc1CC)c1c(C(N)=O)[nH]c2ccc(Cl)cc12 (stereo not drawn) [Compound 6ah],–,–,–,307,211,16.2
CCOP(=O)(c1ccccc1Cl)c1c(C(N)=O)[nH]c2ccc(Cl)cc12 (stereo not drawn) [Compound 6ai],–,–,–,17.3,146,1.2
CCOP(=O)(c1cccc(Cl)c1)c1c(C(N)=O)[nH]c2ccc(Cl)cc12 (stereo not drawn) [Compound 6d],–,–,–,15.8,16.6,1.4
CCOP(=O)(c1cccc(CC)c1)c1c(C(N)=O)[nH]c2ccc(Cl)cc12 (stereo not drawn) [Compound 6e],–,–,–,1.2,34.1,2
CCOP(=O)(c1cccc(C(F)(F)F)c1)c1c(C(N)=O)[nH]c2ccc(Cl)cc12 (stereo not drawn) [Compound 6f],–,–,–,498,–,6.7
CCOP(=O)(c1cccc(C#N)c1)c1c(C(N)=O)[nH]c2ccc(Cl)cc12 (stereo not drawn) [Compound 6g],–,–,–,195,–,9.5
CCOP(=O)(c1cccc(C(C)C)c1)c1c(C(N)=O)[nH]c2ccc(Cl)cc12 (stereo not drawn) [Compound 6i],–,–,–,3.5,9.1,1.2
CCOP(=O)(c1cccc(OC)c1)c1c(C(N)=O)[nH]c2ccc(Cl)cc12 (stereo not drawn) [Compound 6m],–,–,–,66.4,–,2.3
CCOP(=O)(c1cccc2ccccc12)c1c(C(N)=O)[nH]c2ccc(Cl)cc12 (stereo not drawn) [Compound 6t],–,–,–,> 1250,> 1250,32.5
CCOP(=O)(c1ccc(C)cc1)c1c(C(N)=O)[nH]c2ccc(Cl)cc12 (stereo not drawn) [Compound 6w],–,–,–,> 1250,–,7.2
CCOP(=O)(c1ccccc1C)c1c(C(N)=O)[nH]c2ccc(Cl)cc12 (stereo not drawn) [Compound 6x],448,–,21.3,–,–,–
CCOP(=O)(c1ccc(C)c(C)c1)c1c(C(N)=O)[nH]c2ccc(Cl)cc12 (stereo not drawn) [Compound 6y],> 1250,–,2.6,–,–,–
COP(=O)(c1ccccc1)c1c(C(N)=O)[nH]c2ncc(Cl)cc12 (stereo not drawn) [Compound 7-Aza],193,> 1250,14.7,–,–,–
COP(=O)(c1cc(C)cc(C)c1)c1c(C(N)=O)[nH]c2ccc(Cl)cc12 (stereo not drawn) [Compound 7a],–,–,–,1,1.2,0.2
COP(=O)(c1cccc(C2CC2)c1)c1c(C(N)=O)[nH]c2ccc(Cl)cc12 (stereo not drawn) [Compound 7aa],–,–,–,3.7,7,2.2
COP(=O)(c1cccc(C)c1)c1c(C(N)=O)[nH]c2ccc(Cl)cc12 (stereo not drawn) [Compound 7ac],5.5,9.6,1.3,–,–,–
COP(=O)(c1ccccc1C)c1c(C(N)=O)[nH]c2ccc(Cl)cc12 (stereo not drawn) [Compound 7ad],4.7,32,1.3,–,–,–
